# US11723890B2, “Methods of treatment using an mTORC1 modulator” (Navitor Pharmaceuticals, Inc., priority 2019, dated 2023)
# Legend:
# [1] = system: mTORC1; assay: mTORC1 downstream signaling and synaptic changes in medial pre-frontal cortex of rats; format: in vivo, rat; conditions: layer V pyramidal neurons
# Excerpt: Compound A [(S)-2-amino-5,5-difluoro-4,4-dimethylpentanoic acid] is a novel, orally bioavailable, specific, small molecule that activates mTORC1 pathway signaling in the brain, including those centers responsible for mood.
# [2] = system: rat; assay: Single oral dose toxicology study in rat; format: in vivo
# Experimental: Nonclinical toxicology studies have been performed with compound A in the rat and cynomolgus monkey. Adverse effects were not observed after single oral doses of up to 500 mg/kg in rat and up to 2000 mg/kg in cynomolgus monkey.
# [3] = system: healthy volunteers; assay: Example 4: blinded multiple ascending dose safety and tolerability study; format: in vivo, human; conditions: Cohort 1 (800 mg) and Cohort 2 (1600 mg) once daily for 7 days, compound A or placebo (6:2), preliminary
# Experimental: Navitor Pharmaceuticals, Inc. (Navitor) is currently conducting a study to assess the safety, tolerability, and PK of multiple ascending doses of compound A (400 mg, 800 mg, 1600 mg, 2400 mg, and potentially 3000 mg) versus matched placebo in healthy volunteers. This study also includes an assessment of CSF and clinical biomarkers, as well as a cognition test.
# The study is planned for 4 cohorts and 1 additional optional cohort. Up to approximately 40 healthy volunteers will be randomly assigned to double-blind treatment. In the initial 4 cohorts, eight (8) subjects will be randomized (3:1; compound A:placebo) in each of the four dosage-level cohorts (800 mg, 1600 mg, 2400 mg, and 400 mg) administered as an oral solution. Within each cohort, six subjects will be randomized to receive compound A and two subjects will be randomized to receive placebo. Each subject randomized will receive compound A or placebo once daily for 7 days. Subjects will dose in the morning and will dose each day at the same time. For cohort 3 (2400 mg), each subject will return to the unit after a minimum 5-day washout to receive an additional single dose of compound A or placebo under fed conditions in Period 2. Assessments of safety, tolerability, and PK as well as exploratory biomarker and clinical measures will occur.
# Cohort 1 (800 mg) and Cohort 2 (1600 mg) have been completed. […]
# [4] = system: qEEG and event-related potential (ERP); assay: Example 3: qEEG and event-related potential pharmacodynamics; format: in vivo, human; conditions: healthy males
# Excerpt: Pharmacodynamic Endpoints: The primary pharmacodynamic endpoint was the change from baseline in the difference between the compound A group and the placebo group on qEEG parameters, including:
# Fractal and oscillatory EEG band amplitudes
# Fractal and oscillatory EEG band intra- and interhemispheric coherences
# The secondary pharmacodynamic endpoints were the changes from baseline in the difference between the compound A group and the placebo group in ERP parameters, including: • Mismatch negativity (MMN) amplitude and latency • P300a amplitude and latency • P300b amplitude and latency • N100 amplitude and latency • N200 amplitude and latency • P200 amplitude and latency • Auditory steady-state response (ASSR) peak-to-peak amplitude • ASSR event-related spectral perturbation (ERSP) • ASSR inter-trial phase coherence (ITPC) • Mean time scores of qEEG parallel factor analysis (PARAFAC) atoms endpoints
# Pharmacodynamics were assessed via qEEG and event-related potential (ERP). Frequent PK sampling was included in the study to evaluate the PK of two doses of compound A given approximately 48 hours apart. A PK/PD model was developed that measures qEEG and ERP changes as a function of plasma concentration of compound A as well as determines whether there are any PK/PD differences between Dose 1 and Dose 2 effects.
# [5] = system: cynomolgus monkey; assay: Cardiovascular study in cynomolgus monkeys; format: in vivo
# [6] = 2400 mg, not evident in placebo group
structure (smiles),measurement,setting,value
"CC(C)(C[C@H](N)C(=O)O)C(F)F [Compound A, (S)-2-amino-5,5-difluoro-4,4-dimethylpentanoic acid]","mTORC1 downstream signaling, synaptic protein expression, synaptic arborization",[1],"increase in mTORC1 downstream signaling, synaptic protein expression (e.g., GluR1 and synapsin), and synaptic arborization"
same,finding after single oral dose,"[2]; in vivo, po, 2000 mg/kg",ataxia was noted
same,time by which ataxia resolved,"[2]; in vivo, po, 2000 mg/kg",≤ 24 h
same,single oral dose up to which adverse effects were not observed,[2]; single oral dose,up to 500 mg/kg
same,"labs, vital signs or ECG",[3],No clinically significant abnormalities were observed
same,severity of AEs,[3],mild
same,time to EEG activation after the first and second doses,[4]; 2400 mg Day 1 and Day 3,≤ 1 h
same,ASSR high-frequency (harmonic) resonances,[4]; [6],increased
same,"peak latency of N100, P200, P300A components in auditory oddball tasks",[4]; [6],reduced
same,changes in low- and high-frequency EEG bands,"[4]; 2400 mg, qEEG","dose-dependent decreases in low-frequency EEG bands (delta, theta) and increases in high-frequency EEG bands (gamma)"
same,delta and theta band amplitudes,"[4]; 2400 mg, qEEG",significantly decreased
same,high-frequency band amplitudes (higher beta and gamma bands),"[4]; 2400 mg, qEEG",increased
same,qEEG band coherences,"[4]; 2400 mg, qEEG","increased coherence in alpha, beta, and gamma bands"
same,theta-beta ratios,"[4]; 2400 mg, qEEG",decreased
same,alpha band amplitudes,"[4]; 2400 mg, qEEG, within 1 hour after dosing",decreased
same,neural activation on qEEG,"[4]; single dose 2400 mg, versus placebo",rapid and significant neural activation
same,cardiovascular findings at ≥160 mg/kg,[5]; single oral dose ≥160 mg/kg,decreased heart rate and body temperature
same,cardiovascular finding at higher dosage levels,[5]; single oral dose ≥500 mg/kg,Increased blood pressure
